Test results published in publication PMC6656724 (Communications Biology, 2019).
In brackets after ≈: the same amount, converted by molar mass.

system: not listed separately; test: Stability in mouse hepatic microsomes; settings: mouse hepatic microsomes
Description: 3.6.3 Compound stability in mouse hepatic microsomes and rat hepatocytes
A microsomal stability assay was performed as described in the BioFocus Standard
Operating Procedure ADME-SOP-83, using pooled hepatic mouse
Test and control compounds (midazolam,
dextromethorphan), were prepared in DMSO and incubated at an initial concentration
in the presence of the cofactor, NADPH (1 mM). Aliquots were removed at 0, 5, 10,
20 and 40 minutes for termination of reactions and compound extraction with ACN
containing an analytical internal standard. Samples were centrifuged and the
supernatant fractions analysed for parent compound by mass spectrometry (LC-
MS/MS). The amount of compound remaining (expressed as %) was determined from
the MS response in each sample relative to that in the T = 0 samples (normalised for
internal standard). Ln plots of the % remaining were used to determine the half-life
the slope of the Ln % remaining vs time curve. The in vitro intrinsic clearance Clint

SMILES | Mean intrinsic clearance
CC(CSc1ccc(Cl)cc1)C(=O)O (stereo not drawn) [compound 6, 3-[(4-chlorophenyl)thio]-2-methylpropanoic acid] | < 28 µL/min/mg microsome protein

same assay, conditions: mouse, pooled liver microsomes, Half-life Mean, mouse hepatic microsomes, 1 µM

SMILES | half-life at 1 µM
CC(CSc1ccc(Cl)cc1)C(=O)O (stereo not drawn) [compound 6, 3-[(4-chlorophenyl)thio]-2-methylpropanoic acid] | > 1.67 h

same assay, conditions: mouse, pooled liver microsomes, Half-life n=1, mouse hepatic microsomes, 1 µM

SMILES | half-life at 1 µM
CC(CSc1ccc(Cl)cc1)C(=O)O (stereo not drawn) [compound 6, 3-[(4-chlorophenyl)thio]-2-methylpropanoic acid] | > 1.67 h

same assay, conditions: mouse, pooled liver microsomes, Half-life n=2, mouse hepatic microsomes, 1 µM

SMILES | half-life at 1 µM
CC(CSc1ccc(Cl)cc1)C(=O)O (stereo not drawn) [compound 6, 3-[(4-chlorophenyl)thio]-2-methylpropanoic acid] | > 1.67 h

system: MDR1 (P-glycoprotein); test: in vitro; format: in vitro ADME, canine; settings: dog, MDCK-MDR1, pH 7.4, MDR1 MDCK; read-out: Papp A>B Mean
Description: (§1) internal standard at each timepoint. […]
(§2) including an analytical internal standard.
(§3) Apparent permeability (Papp) values were determined from the relationship: […]
(§4) Where V is the volume of each Transwell compartment (apical 125 µL, basolateral 600 µL), and concentrations are the relative MS responses for compound (normalized to internal standard) in the donor chamber before incubation and acceptor chamber at the end of the incubation. Area = area of cells exposed for drug transfer (0.33 cm 2).
(§5) Efflux ratios (Papp B>A / Papp A>B) were calculated for each compound from the […]
(§6) MDR1-MDCK cell line has been engineered to overexpress the efflux transporter, MDR1 (P-glycoprotein), and a finding of good permeability B>A, but poor […]
(§7) order to confirm the involvement of MDR1 in any efflux seen, an “ef fective efflux ratio” (EER) was calculated by comparing compound efflux ratios (ER) in the two cell types, i.e. EER = ER (MDR1-MDCK)/ ER (wild-type MDCK). This ratio illustrates the effect of the over-expressed MDR1 normalised for the background movement of compound through the wild-type cells.
(§8) Lucifer Yellow (LY) was added to the apical buffer in all wells to assess viability of the cell layer. As LY cannot freely permeate lipophilic barriers, a high degree of LY […]
(§9) validity of other wells on the plate.
(§10) Compound recovery from the wells was determined from MS responses (normalized to internal standard) in donor and acceptor chambers at the end of incubation compared to response in the donor chamber pre-incubation.

SMILES | Papp A→B at 1 h, 10 µM
CC(CSc1ccc(Cl)cc1)C(=O)O (stereo not drawn) [compound 6, 3-[(4-chlorophenyl)thio]-2-methylpropanoic acid] | 50.5 ×10⁻⁶ cm/s

same assay, conditions: dog, MDCK-MDR1, pH 7.4, MDR1 MDCK; read-out: Papp B>A Mean

SMILES | Papp B→A at 1 h, 10 µM
CC(CSc1ccc(Cl)cc1)C(=O)O (stereo not drawn) [compound 6, 3-[(4-chlorophenyl)thio]-2-methylpropanoic acid] | 41.5 ×10⁻⁶ cm/s

same assay, conditions: dog, MDCK-MDR1, pH 7.4, MDR1 MDCK; read-out: Recovery A>B Mean

SMILES | recovery at 1 h, 10 µM
CC(CSc1ccc(Cl)cc1)C(=O)O (stereo not drawn) [compound 6, 3-[(4-chlorophenyl)thio]-2-methylpropanoic acid] | 82%

same assay, conditions: dog, MDCK-MDR1, pH 7.4, MDR1 MDCK; read-out: Recovery A>B n=1

SMILES | recovery at 1 h, 10 µM
CC(CSc1ccc(Cl)cc1)C(=O)O (stereo not drawn) [compound 6, 3-[(4-chlorophenyl)thio]-2-methylpropanoic acid] | 68%

same assay, conditions: dog, MDCK-MDR1, pH 7.4, MDR1 MDCK; read-out: Recovery A>B n=2

SMILES | recovery at 1 h, 10 µM
CC(CSc1ccc(Cl)cc1)C(=O)O (stereo not drawn) [compound 6, 3-[(4-chlorophenyl)thio]-2-methylpropanoic acid] | 96%

same assay, conditions: dog, MDCK-MDR1, pH 7.4, MDR1 MDCK; read-out: Recovery B>A Mean

SMILES | recovery at 1 h, 10 µM
CC(CSc1ccc(Cl)cc1)C(=O)O (stereo not drawn) [compound 6, 3-[(4-chlorophenyl)thio]-2-methylpropanoic acid] | 80%

same assay, conditions: dog, MDCK-MDR1, pH 7.4, MDR1 MDCK; read-out: Recovery B>A n=1

SMILES | recovery at 1 h, 10 µM
CC(CSc1ccc(Cl)cc1)C(=O)O (stereo not drawn) [compound 6, 3-[(4-chlorophenyl)thio]-2-methylpropanoic acid] | 93%

same assay, conditions: dog, MDCK-MDR1, pH 7.4, MDR1 MDCK; read-out: Recovery B>A n=2

SMILES | recovery at 1 h, 10 µM
CC(CSc1ccc(Cl)cc1)C(=O)O (stereo not drawn) [compound 6, 3-[(4-chlorophenyl)thio]-2-methylpropanoic acid] | 67%

same assay, conditions: dog, MDCK-MDR1, pH 7.4, Papp A>B n=1, MDR1 MDCK

SMILES | Papp A→B at 1 h, 10 µM
CC(CSc1ccc(Cl)cc1)C(=O)O (stereo not drawn) [compound 6, 3-[(4-chlorophenyl)thio]-2-methylpropanoic acid] | 40 ×10⁻⁶ cm/s

same assay, conditions: dog, MDCK-MDR1, pH 7.4, Papp A>B n=2, MDR1 MDCK

SMILES | Papp A→B at 1 h, 10 µM
CC(CSc1ccc(Cl)cc1)C(=O)O (stereo not drawn) [compound 6, 3-[(4-chlorophenyl)thio]-2-methylpropanoic acid] | 61 ×10⁻⁶ cm/s

same assay, conditions: dog, MDCK-MDR1, pH 7.4, Papp B>A n=1, MDR1 MDCK

SMILES | Papp B→A at 1 h, 10 µM
CC(CSc1ccc(Cl)cc1)C(=O)O (stereo not drawn) [compound 6, 3-[(4-chlorophenyl)thio]-2-methylpropanoic acid] | 51 ×10⁻⁶ cm/s

same assay, conditions: dog, MDCK-MDR1, pH 7.4, Papp B>A n=2, MDR1 MDCK

SMILES | Papp B→A at 1 h, 10 µM
CC(CSc1ccc(Cl)cc1)C(=O)O (stereo not drawn) [compound 6, 3-[(4-chlorophenyl)thio]-2-methylpropanoic acid] | 32 ×10⁻⁶ cm/s

same assay, conditions: dog, pH 7.4; MDR1 MDCK, Papp B>A / Papp A>B

SMILES | efflux ratio at 1 h, 10 µM
CC(CSc1ccc(Cl)cc1)C(=O)O (stereo not drawn) [compound 6, 3-[(4-chlorophenyl)thio]-2-methylpropanoic acid] | 0.81

system: not listed separately; test: in vitro; format: in vitro ADME, canine; settings: dog, MDCK, pH 7.4, Papp A>B n=1, wild type MDCK
Description: as §1, §2, §3, §4, §5, §6, §7, §8, §9, §10

SMILES | Papp A→B at 1 h, 10 µM
CC(CSc1ccc(Cl)cc1)C(=O)O (stereo not drawn) [compound 6, 3-[(4-chlorophenyl)thio]-2-methylpropanoic acid] | 33 ×10⁻⁶ cm/s

same assay, conditions: dog, MDCK, pH 7.4, Papp A>B n=2, wild type MDCK

SMILES | Papp A→B at 1 h, 10 µM
CC(CSc1ccc(Cl)cc1)C(=O)O (stereo not drawn) [compound 6, 3-[(4-chlorophenyl)thio]-2-methylpropanoic acid] | 41 ×10⁻⁶ cm/s

same assay, conditions: dog, MDCK, pH 7.4, Papp B>A n=1, wild type MDCK

SMILES | Papp B→A at 1 h, 10 µM
CC(CSc1ccc(Cl)cc1)C(=O)O (stereo not drawn) [compound 6, 3-[(4-chlorophenyl)thio]-2-methylpropanoic acid] | 51 ×10⁻⁶ cm/s

same assay, conditions: dog, MDCK, pH 7.4, Papp B>A n=2, wild type MDCK

SMILES | Papp B→A at 1 h, 10 µM
CC(CSc1ccc(Cl)cc1)C(=O)O (stereo not drawn) [compound 6, 3-[(4-chlorophenyl)thio]-2-methylpropanoic acid] | 50 ×10⁻⁶ cm/s

same assay, conditions: dog, MDCK, pH 7.4, wild type MDCK; read-out: Papp A>B Mean

SMILES | Papp A→B at 1 h, 10 µM
CC(CSc1ccc(Cl)cc1)C(=O)O (stereo not drawn) [compound 6, 3-[(4-chlorophenyl)thio]-2-methylpropanoic acid] | 37 ×10⁻⁶ cm/s

same assay, conditions: dog, MDCK, pH 7.4, wild type MDCK; read-out: Papp B>A Mean

SMILES | Papp B→A at 1 h, 10 µM
CC(CSc1ccc(Cl)cc1)C(=O)O (stereo not drawn) [compound 6, 3-[(4-chlorophenyl)thio]-2-methylpropanoic acid] | 50.5 ×10⁻⁶ cm/s

same assay, conditions: dog, MDCK, pH 7.4, wild type MDCK; read-out: Recovery A>B Mean

SMILES | recovery at 1 h, 10 µM
CC(CSc1ccc(Cl)cc1)C(=O)O (stereo not drawn) [compound 6, 3-[(4-chlorophenyl)thio]-2-methylpropanoic acid] | 66%

same assay, conditions: dog, MDCK, pH 7.4, wild type MDCK; read-out: Recovery A>B n=1

SMILES | recovery at 1 h, 10 µM
CC(CSc1ccc(Cl)cc1)C(=O)O (stereo not drawn) [compound 6, 3-[(4-chlorophenyl)thio]-2-methylpropanoic acid] | 57%

same assay, conditions: dog, MDCK, pH 7.4, wild type MDCK; read-out: Recovery A>B n=2

SMILES | recovery at 1 h, 10 µM
CC(CSc1ccc(Cl)cc1)C(=O)O (stereo not drawn) [compound 6, 3-[(4-chlorophenyl)thio]-2-methylpropanoic acid] | 75%

same assay, conditions: dog, MDCK, pH 7.4, wild type MDCK; read-out: Recovery B>A Mean

SMILES | recovery at 1 h, 10 µM
CC(CSc1ccc(Cl)cc1)C(=O)O (stereo not drawn) [compound 6, 3-[(4-chlorophenyl)thio]-2-methylpropanoic acid] | 93.5%

same assay, conditions: dog, MDCK, pH 7.4, wild type MDCK; read-out: Recovery B>A n=1

SMILES | recovery at 1 h, 10 µM
CC(CSc1ccc(Cl)cc1)C(=O)O (stereo not drawn) [compound 6, 3-[(4-chlorophenyl)thio]-2-methylpropanoic acid] | 98%

same assay, conditions: dog, MDCK, pH 7.4, wild type MDCK; read-out: Recovery B>A n=2

SMILES | recovery at 1 h, 10 µM
CC(CSc1ccc(Cl)cc1)C(=O)O (stereo not drawn) [compound 6, 3-[(4-chlorophenyl)thio]-2-methylpropanoic acid] | 89%

same assay, conditions: dog, pH 7.4; wild type MDCK, Papp B>A / Papp A>B

SMILES | efflux ratio at 1 h, 10 µM
CC(CSc1ccc(Cl)cc1)C(=O)O (stereo not drawn) [compound 6, 3-[(4-chlorophenyl)thio]-2-methylpropanoic acid] | 1.36

system: not listed separately; test: Kinetic solubility in PBS, pH 7.4 (2% DMSO); format: physicochemical; settings: PBS with 2% DMSO, pH 7.4, aqueous buffer, kinetic from dmso stock, PBS, pH 7.4 (2% DMSO); read-out: Solubility Mean

SMILES | solubility at 2 h
CC(CSc1ccc(Cl)cc1)C(=O)O (stereo not drawn) [compound 6, 3-[(4-chlorophenyl)thio]-2-methylpropanoic acid] | 187 µM (≈ 43.1 µg/mL)

same assay, conditions: PBS with 2% DMSO, pH 7.4, aqueous buffer, kinetic from dmso stock, PBS, pH 7.4 (2% DMSO); read-out: Solubility n=1

SMILES | solubility at 2 h
CC(CSc1ccc(Cl)cc1)C(=O)O (stereo not drawn) [compound 6, 3-[(4-chlorophenyl)thio]-2-methylpropanoic acid] | 186 µM (≈ 42.9 µg/mL)

same assay, conditions: PBS with 2% DMSO, pH 7.4, aqueous buffer, kinetic from dmso stock, PBS, pH 7.4 (2% DMSO); read-out: Solubility n=2

SMILES | solubility at 2 h
CC(CSc1ccc(Cl)cc1)C(=O)O (stereo not drawn) [compound 6, 3-[(4-chlorophenyl)thio]-2-methylpropanoic acid] | 188 µM (≈ 43.4 µg/mL)
